These results are taken from patent publication US4579841A, “Dipeptide derivatives having opiate activity” (University Patents, Inc., priority 1981, dated 1986).

This test relates to electrically stimulated guinea pig ileum. The experiment in a line: In vitro assay on the electrically stimulated guinea pig ileum (Chipkin, et al.). The test is classed as cell-based. To be noted: potency relative to methionine-enkephalin=100. As for the experimental part:
Peptides were assayed for biological activity in vitro on the electrically stimulated guinea pig ileum, using the procedure described by Chipkin, et al. (Life Sciences 28:1517-1522, 1981). All potencies of the peptides in this assay are reported relative to the potency of methionine-enkephalin=100. Analgesic activity of the peptides in vivo was assayed by the tail-flick method following intracerebroventricular injection, as described in the Chipkin, et al., reference. The standard for this assay was Tyr-D-Ala-Gly-Phe-Met-amide.
*(Assay on the stimulated guinea pig ileum according to Chipkin, et al.;
standard peptide is methionineenkephalin.)

Where a SMILES comes first, the peptide text is derived from it. [ ]: non-standard residue; d: D form.

Regarding `NC(=O)[C@@H](Cc1ccccc1)NC(=O)[C@@H](N)Cc1ccc(O)cc1` [Tyr--D-Phe--NH2] (H-Tyr-[dF]-NH2), the “Relate In Vitro Potency” value stood at 0.1.
